The record followed here is patent publication US20060121449A1, “Method for selection of compounds which inhibit clonal cell growth and use thereof” (priority 2002, published 2006).

The subject of this assay is polyoma virus transformed BHK21/c13 cells, line S100T1. The assay can be described thus: Collocation inhibition test: clonal growth in sparsely and densely seeded areas of a cell density gradient of S100T1 cells in soft agar (Exp 13, 17, 19-26).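 On all read-outs here: soft agar cultures in 24-well plates with a cell density gradient in the top layer, compounds applied from DMSO stocks, clonal growth scored in sparse versus dense areas.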 Conditions: for Clonal growth, H: high density area of cell gradient, High / Clonal growth, L: low density area of cell gradient, High / Clonal growth, H: high density area of cell gradient, Low / Clonal growth, L: low density area of cell gradient, Low / Clonal growth, H: high density area of cell gradient, Medium / Clonal growth, L: low density area of cell gradient, Medium: 4-OH-OPB analogues, S100T1 in soft agar; for Clonal growth, H: high density area of cell gradient, High / Clonal growth, L: low density area of cell gradient, High: high concentration; for Clonal growth, H: high density area of cell gradient, Low / Clonal growth, L: low density area of cell gradient, Low: low concentration; for Clonal inhibition by 4-OH-OPB analogues, summary of Exp 22-25: sparsely seeded areas while densely seeded areas of the same culture showed significant growth.

The mark [1] stands for this setting: Experiment 25, H: area with high cell density, Low concentration, after 48 hours incubation.
Where [2] appears, read: Experiment 25, H: area with high cell density, Medium concentration, after 48 hours incubation.
The mark [3] stands for this setting: Experiment 25, L: area with low cell density, High concentration, after 48 hours incubation.
Setting [4] is: Experiment 25, L: area with low cell density, Low concentration, after 48 hours incubation.
[5] abbreviates: Experiment 25, L: area with low cell density, Medium concentration, after 48 hours incubation.
Where [6] appears, read: Summary Table 3 of analogue tests (experiments 22-25), H (high cell density), Low concentration.
Setting [7] is: Summary Table 3 of analogue tests (experiments 22-25), H (high cell density), Medium concentration.
Setting [8] is: Summary Table 3 of analogue tests (experiments 22-25), L (low cell density), High concentration.
Setting [9] is: Summary Table 3 of analogue tests (experiments 22-25), L (low cell density), Low concentration.
Where [10] appears, read: Summary Table 3 of analogue tests (experiments 22-25), L (low cell density), Medium concentration.

“Also recorded” adds a separate entry of the source.

Experimental: The cells should be grown in a top agar layer to avoid growth on the bottom surface. […] Both densely seeded and sparsely seeded areas were photographed.
Cells: The polyoma virus transformed offspring of BHK21/c13, S100T1, was grown on 75 cm^2 flasks on Eagles medium with 5% foetal calf serum. […] Foetal calf serum (0.7 ml) was added to each harvest. After low speed centrifugation the supernatant was discarded and the cells were dispersed in 1 ml FBS.
The concentration of ultra low gelling temperature agarose (Sigma) of the top agar layer with cells was also 0.8%. […] The addition of cells was performed at the same side of the wells in order to create similar cell density gradients. Finally the top layer agar was consolidated in the refrigerator.
After that it was incubated at 37 degrees in 5% CO2 atmosphere.
Agar cultures were prepared in Falcon 24 well tissue culture plate. Each well contained two agar layers of 0.3 ml.
Agar cultures were prepared in wells of Falcon 24 well tissue culture plate. Each contained two agar layers of 0.3 ml. […] The medium contained Eagles MEM and 10% foetal bovine serum (FBS).
The compounds were first solved in DMSO in 20 mM concentration and then diluted in medium. The top layer needed 60-90 minutes in the refrigerator for solidification before incubation in 37° C. with 5% CO2 atmosphere.
In this experiment the inhibitor was added to the bottom layer in order to get an easier way for making the cell density gradient. One side of the Falcon 24 well plate was elevated 12 degrees in the refrigerator for 60-90 minutes to solidify the bottom layer in an oblique position When then solidifying the cell containing top soft agar layer in horizontal position, the cell gradient constantly became good across the well. […] Another 90 minutes were spent in the refrigerator to consolidate the soft agar layer with cells in a horizontal position. Both layers contained 0.8% agarose, Eagles MEM and 10% FBS.
Tilting the plate 12 degrees when solidifying the bottom layer with the drug and casting the top layer with cells horizontally made a stable cell gradient.
The indicated compounds were added to soft agar cultures of the polyoma virus transformed cell line S100T1 of BHK21/c13 cells (Table 1). Agar cultures were prepared in wells of a Falcon 24 well tissue culture plate. The wells contained two agar layers of 0.3 ml. […] The bottom medium was identical, but without cells.
The compounds were first solved in DMSO in 20 mM concentration and then diluted in bottom medium. The agar layers needed 60-90 minutes in the refrigerator for consolidation before incubation at 37° C. in 5% CO2 atmosphere.

Consider “4-hydroxy-4-aldehyd-1,2-diphenyl-pyrazolidinedione [#10]”, for which the “Clonal growth, H: high density area of cell gradient, High” value is “((+))”; the “Clonal growth, L: low density area of cell gradient, High” value is “−”; the “Clonal growth, H: high density area of cell gradient, Low” value is “++”; the “Clonal growth, L: low density area of cell gradient, Low” value is “++”. Moreover, under “medium concentration”, the “Clonal growth, H: high density area of cell gradient, Medium” value was “++” and the “Clonal growth, L: low density area of cell gradient, Medium” value is “−”. Besides, the “Concentration inhibiting clonal growth of sparsely seeded cells without affecting densely seeded areas” value (Exp 25, medium concentration, 180000 S100T1 cells/well) is reported as “about 50 μM”. The Clonal growth result under setting [1] was “++”. For the same molecule, under setting [2], the Clonal growth entry is reported as “++”. Moreover, the Clonal growth result under setting [3] is on record as “−”. Moreover, the Clonal growth result under setting [4] is “++”. Moreover, the Clonal growth entry under setting [5] is recorded as “−”. The Clonal growth entry under setting [6] is recorded as “++”. Besides, the Clonal growth entry under setting [7] is recorded as “++”. Further, the Clonal growth entry under setting [8] is listed as “−”. In addition, the Clonal growth entry under setting [9] is “++”. Besides, the Clonal growth result under setting [10] is on record as “−”. The “Clonal inhibition by 4-OH-OPB analogues, summary of Exp 22-25” value (listed as # 10) is “complete inhibition of growth in sparsely seeded areas”.
Consider `CCCCC1(O)C(=O)N(c2ccccc2)N(c2ccccc2)C1=O` [#11, 4-butyl-4-hydoxy-1,2-diphenyl-3,5-pyrazolidnedione], for which the “Clonal growth, H: high density area of cell gradient, High” value is recorded as “++(+)”; the “Clonal growth, L: low density area of cell gradient, High” value is listed as “++”; the “Clonal growth, H: high density area of cell gradient, Low” value is reported as “++”; the “Clonal growth, L: low density area of cell gradient, Low” value was “++”. The “Clonal inhibition by 4-OH-OPB analogues, summary of Exp 22-25” value is “possible stimulation at high concentration”. Moreover, for the setting “medium concentration”, the “Clonal growth, H: high density area of cell gradient, Medium” value is “++” and the “Clonal growth, L: low density area of cell gradient, Medium” value is on record as “++”. Also, the “Effect on clonal growth” value (Exp 25, 48 hours incubation) is listed as “did not show any growth inhibition; also recorded: high concentration might stimulate growth in densely seeded areas”. The Clonal growth result (Experiment 25, H: area with high cell density, High concentration, after 48 hours incubation) was “++(+)”. The Clonal growth entry under setting [1] was “++”. Also, the Clonal growth result under setting [2] is “++”. Besides, the Clonal growth result under setting [3] was “++”. The Clonal growth result under setting [4] is “++”. Moreover, the Clonal growth entry under setting [5] is recorded as “++”. In addition, the Clonal growth result (Summary Table 3 of analogue tests (experiments 22-25), H (high cell density), High concentration) is reported as “++(+)”. Besides, the Clonal growth result under setting [6] was “++”. For the same molecule, the Clonal growth entry under setting [7] is “++”. Moreover, the Clonal growth entry under setting [8] is recorded as “++”. Under setting [9], the Clonal growth result is given as “++”. In addition, under setting [10], the Clonal growth result was “++”.
